The text below walks through data of US7671054B1, “Reverse-turn mimetics and method relating thereto” (Choongwae Pharma Corporation, priority 2001, dated 2010).

Usually inhibition stands for how much of the control response was suppressed. Low values mean little suppression, high ones strong suppression. By IC50 is commonly meant the concentration that gives 50% inhibition. The term GI50 denotes the concentration giving 50% growth inhibition.

Holding throughout (assay type): cell-based
The subject of one assay is Survivin. Put plainly: Effect on survivin expression (Table 9). An excerpt:
(§1) The effects of various compounds having general formula (I) on survivin and TCF4 expression were characterized.

The test system of another assay is TCF4. Put plainly: Effect on TCF4 expression (Table 9).
Excerpt: as §1

Assay [1] has as its system TCF4/β-catenin transcription (TOPFlash) in SW480 cells. Put plainly: Reporter gene assay (TOPFlash luciferase). To be noted: Homo sapiens, SW480, Table 4; Reporter gene assay as described in Example 6; read-out: IC50. Summed up: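 SW480 cells transiently co-transfected with TOPFlash and pRL-null (4:1 µg) using Superfect, then reseeded at 3×10^4 cells/well and incubated overnight at 37 °C. Compound treatment lasted 24 h before luciferase read-out.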

In the next assay the test system is HCT116 cells. Put plainly: Growth inhibition assay (MTS). To be noted: Homo sapiens, HCT-116, 48 h, Table 5; HCT116 cells, 48 hours treatment, MTS; read-out: Growth Inhibition (GI50, uM) HCT116. Summed up:
(§2)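 Cells seeded at 10^4 per well, grown 24 h at 37° C, then exposed to compound at various concentrations for 48 hours. MTS added for 2 h; absorbance at 490 nm gave viability, with cytotoxicity calculated per concentration against pre-treatment reading.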

For the next assay, the system named is SW480 cells. Put plainly: Growth inhibition assay (MTS). To be noted: Homo sapiens, SW480, 48 h, Table 5; SW480 cells, 48 hours treatment, MTS; read-out: Growth Inhibition (GI50, uM) SW480. Summed up: as §2

Molecules are shown by their SMILES.

In the assay with Survivin, `CN1CC(=O)N2C(Cc3ccc(O)cc3)C(=O)N(Cc3ccc(F)cc3F)CC2N1C(=O)NCc1ccccc1` (stereo not drawn) registered an inhibition at 5 µM of 51% and an inhibition at 25 µM of 93%. The compound also showed an IC50 in the assay on TCF4 of around 6300 nM.
The like results for `CN(C)c1ccccc1CN1C[C@@H]2N(C(=O)CN(C)N2C(=O)NCc2ccccc2)[C@@H](Cc2ccc(O)cc2)C1=O` were, in that order, 41%, 92% and 5200 ± 700 nM.
In the assay on Survivin, `CN(C)c1cccc(F)c1CN1C[C@@H]2N(C(=O)CN(C)N2C(=O)NCc2ccccc2)[C@@H](Cc2ccc(O)cc2)C1=O` yielded an inhibition at 5 µM of 0% and an inhibition at 25 µM of 6%. Also, the IC50 with TCF4 came out at 18200 ± 2400 nM.
The like results for `CN1CC(=O)N2[C@@H](CN(Cc3ccc(F)cc3C(F)(F)F)C(=O)[C@@H]2Cc2ccc(O)cc2)N1C(=O)NCc1ccccc1` were, in that order, 0%, 80% and 1300 ± 100 nM.
On to `CN(C)c1ccc(Cl)cc1CN1C[C@@H]2N(C(=O)CN(C)N2C(=O)NCc2ccccc2)[C@@H](Cc2ccc(O)cc2)C1=O`, for which, in the assay on Survivin, testing at 5 µM gave an inhibition of 0% and the inhibition at 25 µM worked out at 93%. Further, the IC50 in the assay on TCF4 worked out at 2200 ± 200 nM.
For `CCN(C)c1cccc(CN2C[C@@H]3N(C(=O)CN(C)N3C(=O)NCc3ccccc3)[C@@H](Cc3ccc(O)cc3)C2=O)c1`, in that order: 46%, 96% and 4400 ± 600 nM.
The like results for `CCN(CC)c1cccc(CN2C[C@@H]3N(C(=O)CN(C)N3C(=O)NCc3ccccc3)[C@@H](Cc3ccc(O)cc3)C2=O)c1` were, in that order, 0%, 77% and 3500 ± 300 nM.
The like results for `CN(C)c1cc(CN2C[C@@H]3N(C(=O)CN(C)N3C(=O)NCc3ccccc3)[C@@H](Cc3ccc(O)cc3)C2=O)ccc1Cl` were, in that order, 0%, 92% and 7300 ± 600 nM.
As for `CN(C)c1cc(F)ccc1CN1C[C@@H]2N(C(=O)CN(C)N2C(=O)NCc2ccccc2)[C@@H](Cc2ccc(O)cc2)C1=O`, in the assay with Survivin, testing at 5 µM gave an inhibition of 79% and the inhibition at 25 µM amounted to 81%. The compound further showed an IC50 in the assay with TCF4 of 1700 ± 200 nM.
For `Cc1cc(C)c(N(C)C)c(CN2C[C@@H]3N(C(=O)CN(C)N3C(=O)NCc3ccccc3)[C@@H](Cc3ccc(O)cc3)C2=O)c1`, in that order: 0%, 84% and 4800 ± 400 nM.
The like results for `Cc1cccc(CN2C[C@@H]3N(C(=O)CN(C)N3C(=O)NCc3ccccc3)[C@@H](Cc3ccc(O)cc3)C2=O)c1N(C)C` were, in that order, 0%, 68% and 10900 ± 1300 nM.
In the assay on Survivin, `Cc1cccc(N(C)C)c1CN1C[C@@H]2N(C(=O)CN(C)N2C(=O)NCc2ccccc2)[C@@H](Cc2ccc(O)cc2)C1=O` returned an inhibition at 5 µM of 8% and an inhibition at 25 µM of 4%.
For the compound `CN(C)c1cc(F)c(F)cc1CN1C[C@@H]2N(C(=O)CN(C)N2C(=O)NCc2ccccc2)[C@@H](Cc2ccc(O)cc2)C1=O`, in the assay on Survivin, the inhibition at 5 µM stood at 9% and 25 µM produced 91% inhibition. Further, in the assay with TCF4, the IC50 was 1400 ± 200 nM.
The like results for `CC(C)N(C)c1cccc(CN2C[C@@H]3N(C(=O)CN(C)N3C(=O)NCc3ccccc3)[C@@H](Cc3ccc(O)cc3)C2=O)c1` were, in that order, 5%, 91% and 6300 ± 431 nM.
The like results for `Cc1ccc(N(C)C)c(CN2C[C@@H]3N(C(=O)CN(C)N3C(=O)NCc3ccccc3)[C@@H](Cc3ccc(O)cc3)C2=O)c1` were, in that order, 0%, 94% and 2600 ± 400 nM.
The like results for `CN(C)c1c(Cl)cccc1CN1C[C@@H]2N(C(=O)CN(C)N2C(=O)NCc2ccccc2)[C@@H](Cc2ccc(O)cc2)C1=O` were, in that order, 0%, 21% and 7300 ± 1100 nM.
In the assay on Survivin, `CN(C)c1c(CN2C[C@@H]3N(C(=O)CN(C)N3C(=O)NCc3ccccc3)[C@@H](Cc3ccc(O)cc3)C2=O)cccc1C(F)(F)F` displayed an inhibition at 5 µM of 0% and an inhibition at 25 µM of 91%. This compound also came in with an IC50 in the assay with TCF4 of 5200 ± 1100 nM.
For `CN1CC(=O)N2[C@@H](CN(Cc3cccc4c3ncn4C)C(=O)[C@@H]2Cc2ccc(O)cc2)N1C(=O)NCc1ccccc1`, in that order: 45%, 88% and 13200 ± 4100 nM.
The like results for `COc1cccc(CN2C[C@@H]3N(C(=O)CN(C)N3C(=O)NCc3ccccc3)[C@@H](Cc3ccc(O)cc3)C2=O)c1N(C)C` were, in that order, 9%, 92% and 5900 ± 500 nM.
For `CN1CC(=O)N2[C@@H](Cc3ccc(O)cc3)C(=O)N(Cc3c(Cl)cc(Cl)c4cccnc34)C[C@@]2(C)N1C(=O)NCc1ccccc1`, in that order: 6%, 58% and 11200 ± 1500 nM.
In the assay with Survivin, `Cc1c(CN2C[C@@H]3N(C(=O)CN(C)N3C(=O)NCc3ccccc3)[C@@H](Cc3ccc(O)cc3)C2=O)cccc1N(C)C` returned an inhibition at 5 µM of 48% and an inhibition at 25 µM of 96%. The midpoint of inhibition in the assay on TCF4, the IC50, lay at 3900 ± 550 nM.
For `CN1CC(=O)N2[C@@H](CN(Cc3c(Cl)ccc4cccnc34)C(=O)[C@@H]2Cc2ccc(O)cc2)N1C(=O)NCc1ccccc1`, in that order: 0%, 32% and 50400 ± 7000 nM.
The like results for `CN1CC(=O)N2[C@@H](CN(Cc3ccc(Cl)c4cccnc34)C(=O)[C@@H]2Cc2ccc(O)cc2)N1C(=O)NCc1ccccc1` were, in that order, 86%, 91% and 2600 ± 600 nM.
For `CC(C)N(C)c1ccccc1CN1C[C@@H]2N(C(=O)CN(C)N2C(=O)NCc2ccccc2)[C@@H](Cc2ccc(O)cc2)C1=O`, in that order: 27%, 98% and 10700 ± 1700 nM.
In the assay with Survivin, `CN1CC(=O)N2[C@@H](CN(Cc3cccc4cn[nH]c34)C(=O)[C@@H]2Cc2ccc(O)cc2)N1C(=O)NCc1ccccc1` displayed an inhibition at 5 µM of 80% and an inhibition at 25 µM of 97%. The same compound had an IC50 in the assay with TCF4 of 4600 ± 700 nM.
For `CN1CC(=O)N2[C@@H](CN(Cc3cccc4cnn(C)c34)C(=O)[C@@H]2Cc2ccc(O)cc2)N1C(=O)NCc1ccccc1`, in that order: 82%, 97% and 2800 ± 400 nM.
Consider `CN1CC(=O)N2C(CN(Cc3cc(F)c(F)c(F)c3)C(=O)[C@@H]2Cc2ccc(O)cc2)N1C(=O)NCc1ccccc1` (stereo in doubt) [Compound 16], for which the IC50 in assay [1] was determined as 3800 nM. For the same compound, the GI50 in the assay with HCT116 cells amounted to 2.95 µM; in the assay with SW480 cells it was 4.18 µM.
As to `C=CCN1CC(=O)N2[C@@H](Cc3ccc(O)cc3)C(=O)N(Cc3ccc(OC)cc3OC)C[C@@H]2N1C(=O)NCc1ccccc1` [Compound 183], the GI50 amounted to 1.5 ± 0.1 µM in the assay on HCT116 cells and 1.6 ± 0.3 µM in the assay with SW480 cells.
The like results for `C=CCN1CC(=O)N2[C@@H](Cc3ccc(O)cc3)C(=O)N(Cc3cccc(OC)c3OC)C[C@@H]2N1C(=O)NCc1ccccc1` [Compound 184] were, in that order, 0.7 ± 0.1 µM and 0.7 ± 0.4 µM.
Take `C=CCN1CC(=O)N2[C@@H](Cc3ccc(O)cc3)C(=O)N(Cc3ccc(OC)cc3)C[C@@H]2N1C(=O)NCc1ccc(Cl)c(Cl)c1` [Compound 185]: the GI50 in the assay with HCT116 cells came out at 4.5 ± 0.2 µM; with SW480 cells it was 4.9 ± 0.4 µM.
The like results for `C=CCN1CC(=O)N2[C@@H](Cc3ccc(O)c(F)c3)C(=O)N(Cc3cccc4scnc34)C[C@@H]2N1C(=O)NCc1ccccc1` [Compound 186] were, in that order, 2 ± 0.2 µM and 1.7 ± 0.1 µM.
The like results for `C=CCN1CC(=O)N2[C@@H](Cc3ccc(O)cc3)C(=O)N(Cc3cccc4sc(Cl)nc34)C[C@@H]2N1C(=O)NCc1ccccc1` [Compound 187] were, in that order, 1 ± 0.1 µM and 1 ± 0.1 µM.
For `C=CCN1CC(=O)N2[C@@H](Cc3ccc(O)cc3)C(=O)N(Cc3cccc4sc(N5CCCCC5)nc34)C[C@@H]2N1C(=O)NCc1ccccc1` [Compound 188], in that order: 1.8 ± 0.2 µM and 1.6 ± 0.2 µM.
Take `C=CCN1CC(=O)N2[C@@H](Cc3ccc(O)cc3)C(=O)N(Cc3cccc4sc(N5CCOCC5)nc34)C[C@@H]2N1C(=O)NCc1ccccc1` [Compound 189]: the GI50 in the assay on HCT116 cells stood at 1.2 ± 0.1 µM; in the assay on SW480 cells, 1 ± 0.1 µM.
The like results for `C=CCN1CC(=O)N2[C@@H](Cc3ccc(O)cc3)C(=O)N(Cc3cccc4sc(-c5ccc(O)cc5)nc34)C[C@@H]2N1C(=O)NCc1ccccc1` [Compound 192] were, in that order, 1.3 ± 0.1 µM and 1.1 ± 0.1 µM.
For `C=CCN1CC(=O)N2[C@@H](Cc3ccc(O)cc3)C(=O)N(Cc3ccc(Cl)c4scnc34)C[C@@H]2N1C(=O)NCc1ccccc1` [Compound 193], in that order: 1.1 ± 0.1 µM and 0.8 ± 0.1 µM.
For `C=CCN1CC(=O)N2[C@@H](Cc3ccc(O)cc3)C(=O)N(Cc3ccc(F)c4scnc34)C[C@@H]2N1C(=O)NCc1ccccc1` [Compound 194], in that order: 0.2 ± 0.02 µM and 0.2 ± 0.02 µM.
For `C=CCN1CC(=O)N2[C@@H](Cc3ccc(O)cc3)C(=O)N(Cc3cccc4sc(C(=O)OCC)nc34)C[C@@H]2N1C(=O)NCc1ccccc1` [Compound 195], the GI50 in the assay on HCT116 cells was determined as 3 ± 0.3 µM; in the assay with SW480 cells it was 3.1 ± 0.4 µM.
